“Also recorded” adds a separate entry of the source. Marks after values point to notes of the source that are not given here.
System: migraine attack
Test: Intravenous dose-finding study in acute migraine: headache response (moderate or severe becoming mild or none) and secondary efficacy
Type: in vivo, human
Description: Preclinical and early clinical experiments predict acute anti-migraine efficacy of Compound I that is mediated through a non-vascular, primarily neural, mechanism. In a multi-centre, placebo-controlled, double-blind, group-sequential, adaptive treatment-assignment, proof-of-concept and dose-finding study, 130 patients were treated in-hospital during a migraine attack. Patients were allocated to an intravenous dose level of Compound I or placebo in small cohorts. The starting dose was 2.5 mg. Subsequent doses were adjusted, up or down, according to the safety and efficacy seen in the preceding cohort. The primary outcome measure was headache response defined as improvement from moderate or severe headache at baseline to mild or no headache at 2 hours post-dose. The study was designed to explore the overall dose response relationship but was not powered to differentiate individual doses from placebo, nor to detect effect differences for other migraine symptoms.
The study used a prospective, randomized, double-blind, placebo-controlled design with group-sequential adaptive-treatment assignment (Olesen J et al., N Engl J Med 2004: 350: 1104-10; Hall D B et al., Contemporary Clinical Trials 2005; 26: 349-63). […] The first cohort was allocated to the 2.5 mg dose level. The dose used in subsequent cohorts depended on the headache response (moderate or severe headache reduced to mild or none at 2 hours) of the previous cohort: if 2 or less of the 4 active-treated patients had responded, the dose was increased, and if 3 or more of the 4 active-treated patients had responded, the dose was reduced. The dose adjustment rules were chosen to identify doses of Compound I with efficacy similar to or better than an oral triptan. […] The occurrence of a drug-related serious adverse event would lead to automatic suspension of the randomization pending a safety review.
Patients were initially screened for eligibility at an out-patient visit outside a migraine attack, and were invited to return to the clinic for treatment with study medication of a new, moderate or severe migraine attack within 4 hours of onset. On return to the clinic, eligibility for the study was reconfirmed and the patient was randomized. Patients were eligible for the study if they were between 18 and 65 years of age and had at least a 1 year history of migraine with or without aura fulfilling the IHS diagnostic criteria 1.1 and 1.2.1 (2004), with a migraine onset before the age of 50 years (Headache Classification Subcommittee of the International Headache Society. The International Classification of Headache Disorders (second edition). Cephalalgia 2004: 24; Supp11:1-160). Patients had to be experiencing between 1 and 8 migraine attacks a month and not be using migraine prophylactic medication. Patients were in good general health and had no evidence of vascular disease or hypertension. Patients with previous intolerance of triptans were excluded. Pregnant or breast-feeding women were excluded, as were women of childbearing potential who were not using a highly reliable form of contraception.
On return of the patient to the clinic, instructions for dilution of study drug were obtained from an online randomization system by a pharmacist or other study personnel, independent of the investigator, and the study drug for infusion was prepared. Both investigator and pharmacist were blinded with regard to active or placebo and only the pharmacist knew the dilution. All patients received a 60 ml intravenous infusion over 20 minutes. Efficacy and safety data before and after administration of study drug were entered immediately into an electronic data capture system, so allowing the headache response to be used to drive dose-allocation for subsequent cohorts.
Data were entered concurrently into an online electronic data capture system. Patients were discharged from the clinic after 4 h and continued to record migraine symptoms and adverse events until 24 h using a diary card. […]

CN1CCC(C(=O)c2cccc(NC(=O)c3c(F)cc(F)cc3F)n2)CC1 [Compound I, 2,4,6-trifluoro-N-[6-(1-methyl-piperidin-4-ylcarbonyl)-pyridin-2-yl]-benzamide]
Impression: very much/much better 2h (2.5 mg iv): 75.0% of Patients | Nausea 2 h (2.5 mg iv): 25.0% of Patients | No/mild disability 2 h (2.5 mg iv): 75.0% of Patients | Pain freedom 2 h (2.5 mg iv): 0.0% of Patients | Phonophobia 2 h (2.5 mg iv): 25.0% of Patients | Photophobia 2 h (2.5 mg iv): 25.0% of Patients | Sustained pain free (2.5 mg iv): 0.0% of Patients | Sustained pain response (2.5 mg iv): 50.0% of Patients | Use of rescue medication, 2-24 h (2.5 mg iv): 25.0% of Patients | Proportion of Patients with headache response (2.5 mg iv, 10 min post dose): 0.0% of Patients | Proportion of Patients with headache response (2.5 mg iv, 20 min post dose): 0.0% of Patients | Proportion of Patients with headache response (2.5 mg iv, 40 min post dose): 0.0% of Patients | Proportion of Patients with headache response (2.5 mg iv, 60 min post dose): 50.0% of Patients | Proportion of Patients with headache response (2.5 mg iv, 90 min post dose): 50.0% of Patients | Proportion of Patients with headache response (2.5 mg iv, 120 min post dose): 50.0% of Patients | Proportion of Patients with headache response (2.5 mg iv, 180 min post dose): 50.0% of Patients | Proportion of Patients with headache response (2.5 mg iv, 240 min post dose): 75.0% of Patients | Impression: very much/much better 2h (5 mg iv): 8.3% of Patients | Nausea 2 h (5 mg iv): 41.7% of Patients | No/mild disability 2 h (5 mg iv): 16.6% of Patients | Pain freedom 2 h (5 mg iv): 0.0% of Patients | Phonophobia 2 h (5 mg iv): 41.7% of Patients | Photophobia 2 h (5 mg iv): 75.0% of Patients | Sustained pain free (5 mg iv): 0.0% of Patients | Sustained pain response (5 mg iv): 8.3% of Patients | Use of rescue medication, 2-24 h (5 mg iv): 91.7% of Patients | Proportion of Patients with headache response (5 mg iv, 10 min post dose): 8.3% of Patients | Proportion of Patients with headache response (5 mg iv, 20 min post dose): 16.7% of Patients | Proportion of Patients with headache response (5 mg iv, 40 min post dose): 25.0% of Patients | Proportion of Patients with headache response (5 mg iv, 60 min post dose): 25.0% of Patients | Proportion of Patients with headache response (5 mg iv, 90 min post dose): 25.0% of Patients | Proportion of Patients with headache response (5 mg iv, 120 min post dose): 16.7% of Patients | Proportion of Patients with headache response (5 mg iv, 180 min post dose): 25.0% of Patients | Proportion of Patients with headache response (5 mg iv, 240 min post dose): 33.3% of Patients | Impression: very much/much better 2h (10 mg iv): 37.5% of Patients | Nausea 2 h (10 mg iv): 12.5% of Patients | No/mild disability 2 h (10 mg iv): 54.2% of Patients | Pain freedom 2 h (10 mg iv): 20.8% of Patients | Phonophobia 2 h (10 mg iv): 25.0% of Patients | Photophobia 2 h (10 mg iv): 45.8% of Patients | Sustained pain free (10 mg iv): 12.5% of Patients | Sustained pain response (10 mg iv): 33.3% of Patients | Use of rescue medication, 2-24 h (10 mg iv): 58.3% of Patients | Proportion of Patients with headache response (10 mg iv, 10 min post dose): 8.3% of Patients | Proportion of Patients with headache response (10 mg iv, 20 min post dose): 25.0% of Patients | Proportion of Patients with headache response (10 mg iv, 40 min post dose): 37.5% of Patients | Proportion of Patients with headache response (10 mg iv, 60 min post dose): 50.0% of Patients | Proportion of Patients with headache response (10 mg iv, 90 min post dose): 45.8% of Patients | Proportion of Patients with headache response (10 mg iv, 120 min post dose): 54.2% of Patients | Proportion of Patients with headache response (10 mg iv, 180 min post dose): 54.2% of Patients | Proportion of Patients with headache response (10 mg iv, 240 min post dose): 54.2% of Patients | onset of headache relief (20 mg and 30 mg iv): speed onset of headache relief; also recorded: rapid onset of headache relief | Impression: very much/much better 2h (20 mg iv): 42.9% of Patients | Nausea 2 h (20 mg iv): 21.4% of Patients | No/mild disability 2 h (20 mg iv): 57.1% of Patients | Pain freedom 2 h (20 mg iv): 28.6% of Patients | Phonophobia 2 h (20 mg iv): 25.0% of Patients | Photophobia 2 h (20 mg iv): 42.9% of Patients | Sustained pain free (20 mg iv): 17.9% of Patients | Sustained pain response (20 mg iv): 35.7% of Patients | Use of rescue medication, 2-24 h (20 mg iv): 53.6% of Patients | Proportion of Patients with headache response (20 mg iv, 10 min post dose): 14.3% of Patients | Proportion of Patients with headache response (20 mg iv, 20 min post dose): 39.3% of Patients | Proportion of Patients with headache response (20 mg iv, 40 min post dose): 50.0% of Patients | Proportion of Patients with headache response (20 mg iv, 60 min post dose): 53.6% of Patients | Proportion of Patients with headache response (20 mg iv, 90 min post dose): 53.6% of Patients | Proportion of Patients with headache response (20 mg iv, 120 min post dose): 64.3% of Patients | Proportion of Patients with headache response (20 mg iv, 180 min post dose): 60.7* Percent of Patients | Proportion of Patients with headache response (20 mg iv, 240 min post dose): 57.1* Percent of Patients | Impression: very much/much better 2h (30 mg iv): 68.8% of Patients | Nausea 2 h (30 mg iv): 6.3% of Patients | No/mild disability 2 h (30 mg iv): 75.1% of Patients | Pain freedom 2 h (30 mg iv): 37.5% of Patients | Phonophobia 2 h (30 mg iv): 25.0% of Patients | Photophobia 2 h (30 mg iv): 25.0% of Patients | Sustained pain free (30 mg iv): 18.8% of Patients | Sustained pain response (30 mg iv): 56.3% of Patients | Use of rescue medication, 2-24 h (30 mg iv): 37.5% of Patients | associated symptoms (photophobia, phonophobia, nausea) (30 mg iv): reduced associated symptoms of photophobia, phonophobia, and nausea | headache recurrence within 24 hours (30 mg iv): reduced headache recurrence | moderate or severe disability reported (30 mg iv): reduced the percent of moderate or severe disability reported | patient global impression 2 hours post dose (30 mg iv): increased the number of patients who felt much or very much better; also recorded: increase in the number of patients who felt much better or very much better | use of rescue medication (30 mg iv): reduced the use of rescue medication | pain free at 2 hours versus placebo (30 mg iv over 20 minutes): completely abolished headache in a greater number of patients than placebo; also recorded: completely abolishes headache (‘pain free’) in a greater number of patients than placebo | Proportion of Patients with headache response (30 mg iv, 10 min post dose): 12.5% of Patients | Proportion of Patients with headache response (30 mg iv, 20 min post dose): 50.0% of Patients | Proportion of Patients with headache response (30 mg iv, 40 min post dose): 75.0* Percent of Patients | Proportion of Patients with headache response (30 mg iv, 60 min post dose): 75.0* Percent of Patients | Proportion of Patients with headache response (30 mg iv, 90 min post dose): 68.8% of Patients | Proportion of Patients with headache response (30 mg iv, 120 min post dose): 68.8% of Patients | Proportion of Patients with headache response (30 mg iv, 180 min post dose): 68.8* Percent of Patients | Proportion of Patients with headache response (30 mg iv, 240 min post dose): 68.8* Percent of Patients | Impression: very much/much better 2h (45 mg iv): 50.0% of Patients | Nausea 2 h (45 mg iv): 25.0% of Patients | No/mild disability 2 h (45 mg iv): 25.0% of Patients | Pain freedom 2 h (45 mg iv): 25.0% of Patients | Phonophobia 2 h (45 mg iv): 25.0% of Patients | Photophobia 2 h (45 mg iv): 25.0% of Patients | Sustained pain free (45 mg iv): 25.0% of Patients | Sustained pain response (45 mg iv): 25.0% of Patients | Use of rescue medication, 2-24 h (45 mg iv): 25.0% of Patients | Proportion of Patients with headache response (45 mg iv, 10 min post dose): 75.0* Percent of Patients | Proportion of Patients with headache response (45 mg iv, 20 min post dose): 75.0% of Patients | Proportion of Patients with headache response (45 mg iv, 40 min post dose): 75.0% of Patients | Proportion of Patients with headache response (45 mg iv, 60 min post dose): 50.0% of Patients | Proportion of Patients with headache response (45 mg iv, 90 min post dose): 75.0% of Patients | Proportion of Patients with headache response (45 mg iv, 120 min post dose): 75.0% of Patients | Proportion of Patients with headache response (45 mg iv, 180 min post dose): 75.0% of Patients | Proportion of Patients with headache response (45 mg iv, 240 min post dose): 25.0% of Patients | time at which response starts to separate from placebo (doses of 20 mg and above, after start of infusion): 20 min | efficacy in acute treatment of migraine (intravenous doses of 20 mg and higher): proved effective | effective dose identified by predefined stopping rules (iv over 20 min, primary endpoint): 20 mg
